The record followed here is patent US20090030037A1, “Sustained Release Formulation and Dosing Schedules of Leukotriene Synthesis Inhibitor for Human Therapy” (deCODE Genetics ehf., priority 2005, published 2009).

The structures appear in SMILES notation. Values joined by “and” are separate entries in the source; they are usually repeats but may differ in a detail not shown here. Equal values may be shown once.

A short description of series [1]: Steady-state DG-031 plasma concentrations and half-life, studies DG-031-201 and DG-031-203. Type of series: in vivo, human. The settings on record: humans. An excerpt: Maintaining the minimum concentration using TIED dosing requires only about 70% of the drug that is required for a BID schedule. TID dosing is a more efficient process in terms of drug utilization when the goal is maintaining concentrations above a minimum threshold. It has the added advantage of reducing a patient's total exposure to the drug.

The next series deals with Amyloid A. The series can be described thus: Study DG-031-201: amyloid A in serum. Type of series: in vivo, human. The settings on record: difference visit 2 to 5; 500 and 750 mg/day vs placebo. How it is done: (§1) Genet. 2004). Apart from FLAP, allele A of the SNP SG12S25 in the LTA4 hydrolase gene, another gene in the LT pathway, is also associated with MI, as described in PCT application no. PCT/US03/32556 and PCT/US04/30582 incorporated by reference.
Patients who met the study eligibility criteria were enrolled and randomized into 3 different dose-level groups: (1) 64 patients on 250 mg/day therapy with DG-031 (250 mg q.d.), vs placebo; (2) 64 patients on 500 mg/day therapy with DG-031 (250 mg b.i.d.) vs placebo; and (3) 63 patients on 750 mg/day therapy with DG-031 (250 mg t.i.d.) vs placebo. […] All patients received 3 tablets per day. Treatment periods, 4 weeks in duration each, were separated by a 2-week washout period. The placebo tablets were identical in shape, color, form and taste to the active tablets except that they contained no active drug ingredients. Treatment with DG-031 or placebo was in addition to the subject's standard care, including all medications and treatment plan as prescribed by the subject's cardiologist prior to enrolment. […]
All data were analyzed according to a pre-established statistical analysis plan (SAP) and by intention-to-treat (ITT). […] The difference between DG-031 and placebo treatment was the primary outcome, assessed separately for each of the biomarkers. […]

For the next series, the system named is LTB4. The series can be described thus: Study DG-031-201: ionomycin-induced LTB4 production in whole blood ex vivo. Details: species or system human. The settings on record: for LTB4 production, percent change: Study 201. The procedure: as §1
Patients who met the study eligibility criteria were enrolled and randomized into 3 different dose-level groups: (1) 64 patients on 250 mg/day therapy with DG-031 (250 mg q.d.), vs placebo; (2) 64 patients on 500 mg/day therapy with DG-031 (250 mg b.i.d.) vs placebo; and (3) 63 patients on 750 mg/day therapy with DG-031 (250 mg t.i.d.) vs placebo. […] All patients received 3 tablets per day. Treatment periods, 4 weeks in duration each, were separated by a 2-week washout period. The placebo tablets were identical in shape, color, form and taste to the active tablets except that they contained no active drug ingredients. Treatment with DG-031 or placebo was in addition to the subject's standard care, including all medications and treatment plan as prescribed by the subject's cardiologist prior to enrolment. A total of 191 subjects were enrolled, with 172 completing all 8 visits or 8 patients short of the target of 180 patients.
The primary objective was to determine whether the FLAP inhibitor has a statistically significant effect, compared to placebo, on one or more biomarkers of MI risk, including: (1) ionomycin-induced LTB4 and MPO release by neutrophils ex vivo; (2) MPO, CRP, N-tyrosine, Lp-PLA2 or amyloid A in serum, or (3) LTE4 in urine. The secondary objective was to determine whether the effect of DG-031 was dose-dependent. The tertiary objective was to assess other biomarkers (See Results). Evaluation of safety and tolerability of the drug was also a primary endpoint.
All data were analyzed according to a pre-established statistical analysis plan (SAP) and by intention-to-treat (ITT). Each arm of the study, as well as pooled sets (combining dose levels), was considered for the primary analysis. Each such set is an AB/BA cross-over design and in the primary analysis of efficacy, the levels of biomarkers of MI risk at the end of the treatment periods (visits 4 and 7) were used as primary response variables. The difference between DG-031 and placebo treatment was the primary outcome, assessed separately for each of the biomarkers. Treatment effect was tested using a two-sample t-test on the period differences for suitably transformed response variables, under an assumption of normality of the transformed data. We report treatment effect as one half of the observed mean differences in the two-sample t-test, with a 95% CI. No pre-tests for carry-over effect were performed as a part of the primary analysis. Tests for carry-over were done and are reported separately from results of primary analysis. All hypotheses were tested at a two-sided nominal significance level of 0.05 and p-values based on t-tests are reported. In addition, for the primary efficacy endpoints where the effects of the two highest doses on 10 primary variables were studied, a randomization test was performed which corrects for multiple testing and ensures that the key results are not affected by distributional concerns. In particular, 1 million permutations of the patients into the different study tracks were performed, generating a reference distribution for the maximum of the 10 t-statistics of the biomarkers under the null hypothesis of no drug effect. […]

Another series concerns MPO. In words: Study DG-031-203: plasma MPO. Type of series: in vivo, human. The settings on record: 250 mg TID, 6 hours after intake. The procedure:
The study also collected information on the dose-related effect of DG-031 on capacity for LTB4 production (ex vivo), plasma MPO, and serum-CRP. […] The pattern observed supported a concentration dependent pharmacologic effect of DG-031 on capacity for LTB4 production measured ex vivo. The effects on LTB4 production amounted to a 30% (p=0.016) and 25% (p=0.094) reduction with the 375 mg BID and 250 mg TID doses, respectively.

A further series deals with LDL-C. In words: Study DG-031-204: LDL-C. Type of series: in vivo, human. The settings on record: for LDL-C increase, mean change from baseline: after 4 weeks. How it is done: (§2) An additional single site, open label study was carried out to obtain biomarker and safety data on additional DG-031 doses (i.e., 1000 mg and 1500 mg). This study examined the safety, tolerability and dose-related effects of DG-031 on inflammatory biomarkers including: LTB4, hsCRP, and MPO. A total of 119 patients with a prior history of CAD and MI were randomized to receive either 1000 mg DG-031 (500 mg BID) or 1500 mg DG-031 (500 mg TID) daily for 4-6 weeks. Treatment with DG-031 in addition to the subject's standard care, medication, and treatment, was prescribed by the patient's cardiologist. A majority of the subjects received statin therapy before, during and after the study. Follow-up assessments were performed 2 weeks after the end of study drug administration.
(§3) The biomarkers were analyzed as described in Example 1. Statistical analysis of the data was carried out using a one-sample t-test on change from baseline with a two-sided nominal significance level of 0.050. Biomarker concentrations were log-transformed and a simple last observation carried forward (LOCF) scheme was used to impute missing observations.
LDL-C was measured weekly after administration of DG-031 500 mg BID or 500 mg TID. The mean change from baseline after 4 weeks of treatment was an increase of 9% (p=0.004; n=52) for 500 mg BID and an increase of 9% (p<0.001; n=58) for the 500 TID group. […] The LDL-C effect appeared to increase over time and tended toward baseline values at the 2-week follow up visit. A preliminary exposure-response analysis of data from studies DG-031-201, DG-031-203, and DG-031-204 supported a dose related increase in LDL-C.

Another series relates to Prostaglandin F. The series can be described thus: Study DG-031-204: Prostaglandin F (PGF). The settings on record: after 4 weeks of treatment. The series is classed as in vivo, human. How it is done: as §2, §3
Prostaglandin F (PGF) was measured at 2-week intervals.

Consider `O=C(O)[C@@H](c1ccc(OCc2ccc3ccccc3n2)cc1)C1CCCC1` [DG-031, (R)-(+)-alpha-cyclopentyl-4-(2-quinolinylmethoxy)-Benzeneacetic acid], for which the Dominant half-life in series [1] was in the range of 2.5 to 3 h. Moreover, the “Carry-over effect, Amyloid A” value with Amyloid A is recorded as −0.14. Besides, the “LTB4 production, percent change” value is −18% in the series with LTB4 (250 mg BID); −13% in the series with LTB4 (250 mg QD); −34% (St. 201) and −34% (−201) with LTB4 (250 mg TID). For the same compound, in the series on LTB4 (250 mg TID, at steady state Cmin), the “Reduction of capacity for LTB4 production” value is 30%. Further, in the series with LTB4 (difference visit 2 to 5, 500 and 750 mg/day vs placebo), the “Carry-over effect, LTB4 in whole blood, corr. for wbc” value is on record as −0.10. Also, in the series on MPO, the “Reduction of plasma MPO levels” value worked out at 37%. The “LDL-C increase, mean change from baseline” value in the series on LDL-C (500 mg BID) and with LDL-C (500 mg TID) was 9% throughout. Also, the “LDL-C percent change from baseline after 4 weeks of DG-031 administration, Mean” value in the series with LDL-C (dose 250) is listed as 2.3%; in the series with LDL-C (dose 500) it was 5.0%; in the series on LDL-C (dose 750) it was 7.7%; in the series on LDL-C (dose 1000) it was 10.3%; in the series on LDL-C (dose 1250), 13.0%; in the series on LDL-C (dose 1500), 15.7%. The “Trends in PGF” value in the series on Prostaglandin F was “No significant trends”.
